# Results: patent US10106551B2, “Monothiol mucolytic agents” (PARION SCIENCES, INC., priority 2015, dated 2018)
# Where a name gives a salt, the structure may show the parent alone.
# Tests used:
# Type in all cases: biochemical
# [1] = Pro-Drug DTNB assay with or without esterase; conditions: for Reduction Without Esterase / Reduction With Esterase: 22.5 μM prodrug, 100 μM DTNB; for Reduction Without Esterase: pH 7.5, no enzyme; for Reduction With Esterase: pH 7.5, porcine liver esterase
# Protocol: The present invention provides a series of mucolytic pro-drugs (see R^6=other than H) that are activated by common enzymes that are present in the extracellular milieu (e.g., nucelotidases, phosphatases, and esterases). As a proof-of-concept, the reducing kinetics of the pro-drug compound 46 in the presence or absence of an activating esterase were tested.
# This assay was designed to determine whether prodrug caps added on to our monothiol mucolytic compounds can be cleaved from the molecule. If so, the outcome would be an “active” compound that is able to reduce the S—S bond in DTNB. Similar to the activity concentration version of the DTNB assay described above, monothiol prodrugs were mixed at a final concentration of 22.5 μM with excess DTNB (100 μM final) in 1 mL 50 mM Tris-HCl buffer (pH 7.5) and maximum Abs412 was measured. In the absence of a purified hydrolytic enzyme (e.g. porcine liver esterase; Sigma), the amount of DTNB cleavage observed is an indicator for stability of the cap on the prodrug compound (i.e. if the prodrug remains intact in solution the Abs412=0). Next, 5 uL of esterase (bought as an ammonium sulfate suspension that is subsequently centrifuged to isolate the esterase and then dissolved in reaction buffer prior to assaying) is combined with excess DTNB (100 μM final) and 22.5 μM pro-drug in 1 mL 50 mM Tris-HCl buffer (pH 7.5). Cleavage of the prodrug cap can be visualized in real time via DTNB cleavage at Abs412 by the esterase-liberated monothiol molecule.
# [2] = DTNB assay: rate of S-S bond reduction; conditions: pH 6; 22.5 μM reducing agent, 45 μM DTNB, 50 mM Tris-HCl
# Source text: Thiol-containing compounds, such as the monothiol mucolytic agents described in this patent, can react with DTNB (5,5-Dithiobis(2-nitrobenzoic acid)) resulting in the cleavage of its single S—S bond. The DTNB assay serves a dual purpose in our analysis of monothiol compounds, as it can (1) be used to determine the “active concentration” of the mucolytic compounds (what amount of the compound in a reaction is able to cleave S—S bonds) and (2) to assess the rate that the compound can cleave S—S bonds. When cleaved, the resulting compound, NTB (2-nitro-5-thiobenzoate), is a colored product that is measured spectrophotometrically at an absorbance of 412 nm (Abs412). Using the molar extinction coefficient of NTB and measured maximum Abs412, the molar amount of DTNB that reacted with our mucolytic agents can be calculated. Monothiol mucolytic compounds react at a 1:1 stoichiometric ratio with DTNB (i.e. 1 mole of NTB is produced when 1 mole of DTNB is reacted with 1 mole of a monothiol reducing agent). To define the activity concentration of a compound, a final concentration of 22.5 μM mucolytic reducing agent was combined with an excess of DTNB (100 μM) in 1 mL 50 mM Tris-HCl buffer (pH 7.5). Maximum Abs412 was measured and then utilized to calculate the activity concentration. If observed activity concentrations differed from expected activity concentrations by more than 5%, the amount of the compound added to each reaction was accordingly adjusted to kinetically test the reducing rate in the next step. To determine rate of mucolytic reducing activity, 22.5 μM active reducing agent is combined with 45 μM DTNB in 1 mL 50 mM Tris-HCl buffer over a pH range (6.0-7.5). Abs412 is recorded in real time upon addition of the compound and rates were calculated using 2nd order kinetic parameters.
# Muc5B = biological target: T1, Muc5B (Homo sapiens, UniProt Q9HC84); experiment: Mucin agarose gel western blot (saliva / mucus samples); conditions: for MUC5B reduction: human mucus samples
# T1 construct: Various mucin-containing substrates (e.g. saliva, harvested HBE mucus, and disease sputum) treated with our monothiol mucolytic compounds; from tissue; host or cells: saliva; harvested HBE mucus; disease sputum
# Protocol: Various mucin-containing substrates (e.g. saliva, harvested HBE mucus, and disease sputum) treated with our monothiol mucolytic compounds are quenched upon completion of the treatment period with a 10-fold excess of N-ethylmaleimide in order to alkylate any remaining active compound and to prevent further mucin reduction. A 10× concentrated sample loading buffer is diluted into each sample (1×TAE/5% glycerol/0.1% SDS/Bromophenol Blue). Samples ([…]) were analyzed by electrophoresis on 0.9% agarose gels using a buffer system consisting of 1×TAE/0.1% SDS. The agarose gel was soaked for 15 min in 4×SSC (0.6 M NaCl, 60 mM Tri-sodium citrate dehydrate) containing 10 mM DTT before transferring the samples from the gel onto a nitrocellulose membrane by vacuum blotter. Unreduced and reduced Muc5B were visualized on a LiCor Odyssey imaging detection system using a polyclonal antibody directed towards Muc5B.
SMILES,Reduction Without Esterase [1],Reduction With Esterase [1],DTNB reduction rate [2] [M⁻¹ s⁻¹],further results
"Cl.O=C(SCc1cccc(OCCN(C[C@@H](O)[C@@H](O)[C@H](O)[C@H](O)CO)C[C@@H](O)[C@@H](O)[C@H](O)[C@H](O)CO)c1)c1ccco1 [Compound 10, S-3-(2-(bis((2R,3R,4R,5R)-2,3,4,5,6-pentahydroxyhexyl)amino)ethoxy)benzylfuran-2-carbothioate Hydrochloride]",No,Yes,,
"Cl.OC[C@@H](O)[C@@H](O)[C@H](O)[C@H](O)CN(CCOc1cccc(CS)c1)C[C@@H](O)[C@@H](O)[C@H](O)[C@H](O)CO [Compound 20, (2R,2′R,3R,3′R,4R,4′R,5R,5′R)-6,6′-((2-(3-(mercaptomethyl)phenoxy)ethyl)azanediyl)bis(hexane-1,2,3,4,5-pentaol) Hydrochloride]",,,307.08,
"Cl.OC[C@@H](O)[C@@H](O)[C@H](O)[C@@H](O)CN(CCOc1cccc(CS)c1)C[C@H](O)[C@@H](O)[C@H](O)[C@H](O)CO [Compound 19, (2R,2′R,3R,3′R,4R,4′R,5S,5′S)-6,6′-((2-(3-(mercaptomethyl)phenoxy)ethyl)azanediyl)bis(hexane-1,2,3,4,5-pentaol) Hydrochloride]",,,182.52,
"CC(C)C(=O)SCc1ccc(OCCN(C[C@@H](O)[C@@H](O)[C@H](O)[C@H](O)CO)C[C@@H](O)[C@@H](O)[C@H](O)[C@H](O)CO)cc1.Cl [Compound 59, S-4-(2-(bis((2R,3R,4R,5R)-2,3,4,5,6-pentahydroxyhexyl)amino)ethoxy)benzyl 2-methylpropanethioate Hydrochloride]",No,Yes,,
"CCC(=O)SCc1cccc(OCCN(C[C@H](O)[C@@H](O)[C@H](O)[C@H](O)CO)C[C@H](O)[C@@H](O)[C@H](O)[C@H](O)CO)c1.Cl [Compound 24, S-3-(2-(bis((2S,3R,4R,5R)-2,3,4,5,6-pentahydroxyhexyl)amino)ethoxy)benzyl Propanethioate Hydrochloride]",No,Yes,,
"Cl.OC[C@@H](O)[C@@H](O)[C@H](O)[C@@H](O)CN(CCCCCCOc1ccc(CS)cc1)C[C@H](O)[C@@H](O)[C@H](O)[C@H](O)CO [Compound 47, (2R,2′R,3R,3′R,4R,4′R,5S,5′S)-6,6′-((6-(4-(mercaptomethyl)phenoxy)hexyl)azanediyl)bis(hexane-1,2,3,4,5-pentaol) Hydrochloride]",,,211.3,"time to fully reduce all available disulfides ([1]; parent molecule, same conditions as pro-drug test): < 10 s; reducing capacity relative to 76 (Muc5B) (Muc5B; FIG. 3): retain the reducing capacity of 76; MUC5B reduction (Muc5B): reduce MUC5B"
"CC(C)C(=O)SCc1cccc(OCCN(C[C@H](O)[C@@H](O)[C@H](O)[C@H](O)CO)C[C@H](O)[C@@H](O)[C@H](O)[C@H](O)CO)c1 [Compound 14, S-3-(2-(bis((2S,3R,4R,5R)-2,3,4,5,6-entahydroxyhexyl)amino)ethoxy)benzyl 2-methylpropanethioate Hydrochloride]",No,Yes,,
NCCCCCCOc1ccc(CS)cc1 [Compound 48],,,190.8,
"CC(C)C(=O)SCc1cccc(OCCN(C[C@@H](O)[C@@H](O)[C@H](O)[C@H](O)CO)C[C@@H](O)[C@@H](O)[C@H](O)[C@H](O)CO)c1.Cl [Compound 15a, S-3-(2-(bis((2R,3R,4R,5R)-2,3,4,5,6-pentahydroxyhexyl)amino)ethoxy)benzyl 2-methylpropanethioate Hydrochloride]",No,Yes,,
"Cl.OC[C@@H](O)[C@@H](O)[C@H](O)[C@H](O)CN(CCOc1ccc(CS)cc1)C[C@@H](O)[C@@H](O)[C@H](O)[C@H](O)CO [Compound 58, (2R,2′R,3R,3′R,4R,4′R,5R,5′R)-6,6′-((2-(4-(mercaptomethyl)phenoxy)ethyl)azanediyl)bis(hexane-1,2,3,4,5-pentaol) Hydrochloride]",,,258.31,
"CO[C@@H]1OC(CS)[C@H](O)C(O)C1O (some centres unmarked) [compound 95, reference compound]",,,,"Muc5b reduction (Muc5B; FIG. 4, 30 mM): partial Muc5b reduction"

# Second part, led by results:
Reduction Without Esterase [1],Reduction With Esterase [1],SMILES,DTNB reduction rate [2] [M⁻¹ s⁻¹],further results
No,Yes,"CC(=O)SCc1cccc(OCCN(C[C@H](O)[C@@H](O)[C@H](O)[C@H](O)CO)C[C@H](O)[C@@H](O)[C@H](O)[C@H](O)CO)c1.Cl [Compound 17, S-3-(2-(bis((2S,3R,4R,5R)-2,3,4,5,6-pentahydroxyhexyl)amino)ethoxy)benzyl Ethanethioate Hydrochloride]",,
No,Yes,"Cl.O=C(SCc1cccc(OCCN(C[C@H](O)[C@@H](O)[C@H](O)[C@H](O)CO)C[C@H](O)[C@@H](O)[C@H](O)[C@H](O)CO)c1)c1ccco1 [Compound 9, S-3-(2-(bis((2S,3R,4R,5R)-2,3,4,5,6-pentahydroxyhexyl)amino)ethoxy)benzyl furan-2-carbothioate Hydrochloride]",,
No,Yes,"CCC(=O)SCc1cccc(OCCN(C[C@@H](O)[C@@H](O)[C@H](O)[C@H](O)CO)C[C@@H](O)[C@@H](O)[C@H](O)[C@H](O)CO)c1.Cl [Compound 25, S-3-(2-(bis((2R,3R,4R,5R)-2,3,4,5,6-pentahydroxyhexyl)amino)ethoxy)benzyl Propanethioate Hydrochloride]",,
No,Yes,"CC(=O)SCc1ccc(OCCCCCCN(C[C@H](O)[C@@H](O)[C@H](O)[C@H](O)CO)C[C@H](O)[C@@H](O)[C@H](O)[C@H](O)CO)cc1.Cl [Compound 46, S-4-((6-(bis((2S,3R,4R,5R)-2,3,4,5,6-pentahydroxyhexyl)amino)hexyl)oxy)benzyl Ethanethioate Hydrochloride]",,reduction of disulfide bonds by pro-drug alone ([1]; absence of activating esterase): does not reduce disulfide; reaction rates on addition of activating enzyme ([1]; presence of activating esterase): concentration dependent increase in reaction rates; MUC5B reduction (Muc5B): reduce MUC5B
No,Yes,"CC(=O)SCc1cccc(OCCN(C[C@@H](O)[C@@H](O)[C@H](O)[C@H](O)CO)C[C@@H](O)[C@@H](O)[C@H](O)[C@H](O)CO)c1 [Compound 18, S-3-(2-(bis((2R,3R,4R,5R)-2,3,4,5,6-pentahydroxyhexyl)amino)ethoxy)benzyl Ethanethioate]",,
